Source: patent US20250235496A1, “USE OF BELLIDIFOLIN (BEL) AND/OR BEL-CONTAINING EXTRACT IN PREPARATION OF ANTIDEPRESSANT PRODUCT” (priority 2024, published 2025)
Where a name gives a salt, the structure may show the parent alone.

Assays:
[1] = test system: 5-HT2A; test: 5-HT2A protein expression in hippocampus (immunoblot); assay type: in vivo, mice; settings: 21 d, vs model group
Text: (§1) There was no significant difference in the expression of p-CREB protein among the groups.

[2] = test system: hippocampal neurons; test: Golgi staining of brain tissue: neuron dendrite length and dendritic spine density; assay type: in vivo, mice; settings: 21 d; for Neuron dendrite length, Maximum / Neuron dendrite length, Mean / Neuron dendrite length, Minimum: mouse hippocampus
Text: (§2) Compared with the normal group, the hippocampus structure of the model group mice was abnormal, the cells were wrinkled and then irregularly arranged. After administration, the hippocampus structure returned to normal and the cells were arranged regularly. […] [0172](3) After 21 d of drug administration, brain tissues of mice in each treatment group were collected for Golgi staining.
• (4) After 21 d of drug administration, the dendritic spine density of neurons in the hippocampus of mice was counted. […] The effect intensity was as follows: 10 mg/kg BEL treatment group >20 mg/kg BEL treatment group BEL 40 mg/kg BEL treatment group.

[3] = test system: neurons in the hippocampus of mice; test: H & E staining and immunofluorescence histochemistry of hippocampus; assay type: in vivo; settings: 21 d of administration, CORT-induced mice
Text: [0170](2) After 21 d of drug administration, the hippocampus of mice in each treatment group was stained with H & E, and the proliferation of neurons in the hippocampus of mice was detected by immunofluorescence histochemistry.
as §2

[4] = test system: CORT-induced Kunming mouse model; test: In vivo antidepressant study of BEL: behavioral tests (FST, TST, SPT, NSFT); design: species or system Kunming (KM) mice; settings: CORT-induced mice
[5] = Mass spectrometry imaging of mouse brain; assay type: in vivo, mice; settings: mass spectrometry imaging, 21 d
[6] = test system: mice; test: Acute toxicity study of BEL in mice; assay type: in vivo
[7] = test system: Arg1; test: Arg1 protein expression in hippocampus (immunoblot); assay type: in vivo, mice; settings: 10 mg/kg, 21 d, vs model group
Text: as §1

[8] = test system: 5-HT1A; test: 5-HT1A protein expression in hippocampus (immunoblot); assay type: in vivo, mice; settings: 10 and 20 mg/kg, 21 d, vs model group
Text: as §1

[9] = test system: 5-HT; test: Serum 5-HT level, BEL study; assay type: in vivo; settings: CORT-induced mice
Experimental: (§3) Behavioral experiments were conducted once a week, and the serum 5-HT and CORT levels of mice were recorded.

[10] = test system: CREB; test: CREB / p-CREB protein expression in hippocampus (immunoblot); assay type: in vivo, mice; settings: 21 d
Text: as §1

[11] = test system: CORT-induced Kunming mouse model; test: In vivo antidepressant study of BEL: body weight, diet, water intake; design: species or system Kunming (KM) mice; settings: 21 d, CORT-induced mice
Experimental: After one week of adaptive feeding of experimental mice, 10 mice were randomly selected from 150 mice as a normal group, and the mice in the normal group were not treated in any way. […] The dosing volume was changed once a week according to the weight of the mice, and the mice were subcutaneously administered in the groin of the hind limb between 9:00 and 11:00 am every day. During the modeling, the weight, diet, and water intake of the mice were recorded, and the relevant data were counted once a week until the modeling was completed. During the modeling, the mice were subjected to behavioral analysis. 4 behavioral test designs were designed: FST, TST, SPT, and NSFT. […] There were 5 mice/cage in the normal group and 5 mice/cage in the model group. […] Behavioral experiments were conducted once a week, and the serum 5-HT and CORT levels of mice were recorded. The results were shown in Tables 3 to 5 and FIG. 12A to FIG. 14B.

[12] = test system: CORT; test: Serum CORT level, BEL study; assay type: in vivo; settings: CORT-induced mice
Experimental: as §3

[13] = test system: HT22 cells; test: CORT-induced HT22 cell viability, BEL; assay type: cell-based; settings: Mus musculus, HT-22, 250 μM CORT, 24 h, model = 100.00
[14] = serum, 214 mg/kg gavage, 3 times within 24 h

Structure (SMILES): COc1cc(O)c2c(=O)c3c(O)ccc(O)c3oc2c1 [BEL, bellidifolin]
- Expression of 5-HT2A protein in hippocampus [1]: had no effect on the expression of 5-HT2A
- Neuron dendrite length, Maximum ([2]; 10 mg/kg/d gavage): 1853.00 μm
- Neuron dendrite length, Mean ([2]; 10 mg/kg/d gavage): 75.66 ± 60.55 μm
- Neuron dendrite length, Minimum ([2]; 10 mg/kg/d gavage): 5.86 μm
- Neuron dendrite length, Maximum ([2]; 20 mg/kg/d gavage): 2297.92 μm
- Neuron dendrite length, Mean ([2]; 20 mg/kg/d gavage): 140.64 ± 73.11 μm
- Neuron dendrite length, Minimum ([2]; 20 mg/kg/d gavage): 6.32 μm
- Neuron dendrite length, Maximum ([2]; 40 mg/kg/d gavage): 194.06 μm
- Neuron dendrite length, Mean ([2]; 40 mg/kg/d gavage): 51.73 ± 33.73 μm
- Neuron dendrite length, Minimum ([2]; 40 mg/kg/d gavage): 6.04 μm
- Dendritic spine density of hippocampal neurons ([2]; 10, 20 and 40 mg/kg, vs model group): could significantly increase the dendritic spine density
- Number and length of neurons in the hippocampus (Golgi staining) ([2]; 10 and 20 mg/kg): increased the number of neurons and the length of neurons
- Proliferation of neurons in the hippocampus (immunohistofluorescence) [3]: could promote the proliferation of neurons in the mouse hippocampus
- FST immobility time ([4]; 10 mg/kg/d gavage): 145.00 ± 36.40 s
- NSFT start time of eating ([4]; 10 mg/kg/d gavage): 42.75 ± 31.56 s
- SPT sugar water preference ([4]; 10 mg/kg/d gavage): 13.72 ± 0.30 %
- TST immobility time ([4]; 10 mg/kg/d gavage): 27.50 ± 16.05 s
- FST immobility time ([4]; 20 mg/kg/d gavage): 127.14 ± 36.38 s
- NSFT start time of eating ([4]; 20 mg/kg/d gavage): 57.14 ± 35.77 s
- SPT sugar water preference ([4]; 20 mg/kg/d gavage): 12.41 ± 3.32%
- TST immobility time ([4]; 20 mg/kg/d gavage): 47.22 ± 35.19 s
- FST immobility time ([4]; 40 mg/kg/d gavage): 193.33 ± 25.98 s
- NSFT start time of eating ([4]; 40 mg/kg/d gavage): 38.78 ± 22.73 s
- SPT sugar water preference ([4]; 40 mg/kg/d gavage): 8.75 ± 0.18%
- TST immobility time ([4]; 40 mg/kg/d gavage): 98.75 ± 66.35 s
- Distribution in brain [5]: mainly distributed in the hypothalamus, amygdala, hippocampus, and cortex of mice
- Observation during 14-d period ([6]; 214 mg/kg gavage 3 times within 24 h, subsequent 14-d observation): did not show any abnormalities
- Toxic side effects (weight, brain, liver, kidneys) ([6]; 214 mg/kg gavage, 3 times within 24 h): no toxic side effects on mice
- Weight ([6]; 214 mg/kg gavage, 3 times within 24 h, 14 d observation): 39.18 ± 3.94 g
- Observation after treatment ([6]; 214 mg/kg gavage, 20 min after the second treatment): slight tremors, which disappeared after 2 min
- ALT [6, 14]: 26.85 ± 6.22 U/L
- AST [6, 14]: 48.73 ± 4.15 U/L
- CRE [6, 14]: 23.20 ± 5.69 µmol/L
- Expression of Arg1 protein in hippocampus [7]: could significantly reverse the decrease in Arg1 expression
- Expression of 5-HT1A protein in hippocampus [8]: could significantly promote the expression of 5-HT1A protein
- Serum 5-HT ([9]; 10 mg/kg/d gavage): 134.29 ± 12.34 ng/mL
- Serum 5-HT ([9]; 20 mg/kg/d gavage): 216.11 ± 3.34 ng/mL
- Serum 5-HT ([9]; 40 mg/kg/d gavage): 133.42 ± 30.76 ng/mL
- CREB protein level in hippocampus ([10]; 10 mg/kg, reduced level in model group): could significantly reverse this phenomenon
- Phosphorylation level of CREB in hippocampus ([10]; 40 mg/kg, vs model group): significantly decreased
- Body weight ([11]; 10 mg/kg/d gavage): 37.19 ± 3.35 g
- Diet ([11]; 10 mg/kg/d gavage): 4.02 ± 0.03 g/day
- Water intake ([11]; 10 mg/kg/d gavage): 4.72 ± 0.42 g/day
- Body weight ([11]; 20 mg/kg/d gavage): 37.33 ± 3.30 g
- Diet ([11]; 20 mg/kg/d gavage): 4.48 ± 0.45 g/day
- Water intake ([11]; 20 mg/kg/d gavage): 4.87 ± 0.99 g/day
- Body weight ([11]; 40 mg/kg/d gavage): 36.31 ± 3.72 g
- Diet ([11]; 40 mg/kg/d gavage): 5.14 ± 1.00 g/day
- Water intake ([11]; 40 mg/kg/d gavage): 6.82 ± 0.45 g/day
- Serum CORT ([12]; 10 mg/kg/d gavage): 107.08 ± 8.16 ng/mL
- Serum CORT ([12]; 20 mg/kg/d gavage): 111.82 ± 8.27 ng/mL
- Serum CORT ([12]; 40 mg/kg/d gavage): 93.63 ± 11.48 ng/mL
- viability at 0.0625 µM [13]: 103 ± 5.03%
- viability at 0.125 µM [13]: 107 ± 2.64%
- viability at 0.25 µM [13]: 115 ± 3.93%
- viability at 0.5 µM [13]: 120 ± 3.97%
- viability at 1 µM [13]: 139 ± 5.34%

Structure (SMILES): CNCCC(Oc1ccc(C(F)(F)F)cc1)c1ccccc1 (stereo not shown) [Flu, fluoxetine hydrochloride, reference compound]
- Neuron dendrite length, Maximum ([2]; 20 mg/kg/d gavage): 180.19 μm
- Neuron dendrite length, Mean ([2]; 20 mg/kg/d gavage): 54.65 ± 32.76 μm
- Neuron dendrite length, Minimum ([2]; 20 mg/kg/d gavage): 6.57 μm
- FST immobility time ([4]; 20 mg/kg/d gavage): 178.50 ± 36.52 s
- NSFT start time of eating ([4]; 20 mg/kg/d gavage): 84.50 ± 32.69 s
- SPT sugar water preference ([4]; 20 mg/kg/d gavage): 13.28 ± 0.56 %
- TST immobility time ([4]; 20 mg/kg/d gavage): 71.43 ± 40.80 s
- Body weight ([11]; 20 mg/kg/d gavage): 27.03 ± 1.74 g
- Diet ([11]; 20 mg/kg/d gavage): 3.90 ± 0.39 g/day
- Water intake ([11]; 20 mg/kg/d gavage): 4.00 ± 0.97 g/day
- Serum CORT ([12]; 20 mg/kg/d gavage): 152.77 ± 11.25 ng/mL
- viability at 0.0625 µM [13]: 103 ± 4.06%
- viability at 0.125 µM [13]: 108 ± 3.95%
- viability at 0.25 µM [13]: 111 ± 1.64%
- viability at 0.5 µM [13]: 112 ± 2.77%
- viability at 1 µM [13]: 123 ± 8.39%

Structure (SMILES): CN(C)CCCN1c2ccccc2CCc2ccccc21 [Imi, imipramine hydrochloride, reference compound]
- Neuron dendrite length, Maximum ([2]; 20 mg/kg/d gavage): 172.10 μm
- Neuron dendrite length, Mean ([2]; 20 mg/kg/d gavage): 37.66 ± 25.07 μm
- Neuron dendrite length, Minimum ([2]; 20 mg/kg/d gavage): 5.95 μm
- FST immobility time ([4]; 20 mg/kg/d gavage): 163.00 ± 38.09 s
- NSFT start time of eating ([4]; 20 mg/kg/d gavage): 65.11 ± 32.90 s
- SPT sugar water preference ([4]; 20 mg/kg/d gavage): 8.32 ± 0.12%
- TST immobility time ([4]; 20 mg/kg/d gavage): 76.43 ± 46.52 s
- Serum 5-HT ([9]; 20 mg/kg/d gavage): 130.24 ± 13.65 ng/mL
- Body weight ([11]; 20 mg/kg/d gavage): 34.41 ± 1.80 g
- Diet ([11]; 20 mg/kg/d gavage): 4.38 ± 0.45 g/day
- Water intake ([11]; 20 mg/kg/d gavage): 4.92 ± 0.40 g/day
- Serum CORT ([12]; 20 mg/kg/d gavage): 143.19 ± 12.30 ng/mL
